Results: patent publication US20230133445A1, “COMPOSITIONS AND METHODS FOR IMPROVING THE APPEARANCE OF SKIN” (L'Oreal, priority 2021, published 2023)

What was measured:
Neutrophil Elastase = biological target: T1, Neutrophil Elastase (Homo sapiens, UniProt P08246); assay: Neutrophil Elastase (NE) Inhibition in tubo assay (MAK213, Sigma-Aldrich); format: biochemical
T1 construct: purchased Sigma-Aldrich MAK213
T1 sequence (P08246 30-267): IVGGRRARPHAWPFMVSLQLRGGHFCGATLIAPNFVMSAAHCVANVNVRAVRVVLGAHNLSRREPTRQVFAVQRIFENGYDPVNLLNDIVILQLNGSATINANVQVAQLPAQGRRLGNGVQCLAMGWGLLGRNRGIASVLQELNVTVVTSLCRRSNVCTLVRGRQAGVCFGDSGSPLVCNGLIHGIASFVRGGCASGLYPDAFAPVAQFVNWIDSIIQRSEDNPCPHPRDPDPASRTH
Description: The ability of acetyl trifluoromethylphenyl valylglycine (“ATV”), glycolic acid, and/or lactic acid to inhibit the elastin-hydrolyzing effect of elastase was evaluated in a Neutrophil Elastase (NE) Inhibition in tubo assay (MAK213, Sigma-Aldrich, MO). Neutrophil Elastase activity was measured by hydrolyzing the substrate to yield a fluorescent product (λex=400/λem=505 nm) proportional to the enzymatic activity present.
A 4× sample inhibitor solution of the each tested chemical peeling agent and acetyl trifluoromethylphenyl valylglycine, and every combination provided in FIGS. 1 and 2 was prepared. The inhibitor/positive control (Elastase Inhibitor, SPCK, AG Scientific), enzyme/negative control (contains elastase), neutrophil elastase, and substrate solutions were prepared. The test compounds, controls, and neutrophil elastase were added to a 96-well plate, protected from light, and incubated at 37° C. for 5 minutes. The elastin substrate was then added to each well and the fluorescence (FLU, λex=400 nm, λem=505 nm) was measured every minute for thirty minutes at 37° C. The slope of the plot (time vs FLU) was taken. Relative inhibition was calculated as follows: […]

[1] = format: in vitro ADME, human
Description: Human skin samples were obtained from abdominal surgery. Excess subcutaneous fat was removed, if necessary. Skin samples were excised and cut into pieces of around 2 cm×2 cm. Thickness was measured and transepidermal water loss (TEWL) was measured. The human skin was included in the study if the TEWL was between 0.5 and 13 g/m^2/h for abdominal skin. The 2 cm^2 skin samples were kept in a static cell in a diffusion chamber in a Franz cell horizontal cell clamp system (Crown Glass Company, Inc.) and maintained at a constant temperature of 32° C.±1° C. The static cells consist of a donor chamber and a receptor chamber with a 7 mL receptor fluid compartment separated by the skin.
The cells were placed on a magnetic stirrer which was integrated with a fixed temperature water bath maintained in order to have 32° C.±1° C. at the skin surface. The receptor compartment of each cell was filled with the receptor fluid (PBS) and was continuously stirred. The skin samples were placed on the receptor compartment. The donor compartment was then placed onto the skin samples. […]
A composition containing 2 wt % acetyl trifluoromethylphenyl valylglycine was applied to the skin sample at a rate of 10 mg/cell using a positive displacement pipette and the exact amount applied was determined by weight then recorded (Sartorius Entris II Essential Analytical balance, Thermo-Fisher). […]
The skin was then stripped with consistent weight and time of application. […] The strips samples were stored with solvent (methanol) at −20° C. for a maximum of 5 days before being analyzed. […] The RS vials were stored with solvent (methanol) at −20° C. for a maximum of 7 days before being analyzed. Dermis and epidermis samples were stored with solvent at −20° C. for a maximum of 7 days before being analyzed. The receptor fluid was taken 16 hours after the application and the samples were analyzed.
Receptor fluid samples were stored at −20° C. for a maximum of 6 days before being analyzed. […] Samples were stored at −20° C. for a maximum of 5 days before being analyzed.
The final extract was analyzed by LC-MS/MS. […]

SMILES: CC(O)C(=O)O (stereo not shown) [Lactic Acid, reference compound]
- Average Inhibition (%) (Neutrophil Elastase; Table 2, 0.125 wt % Lactic Acid): 8.507%
- Average Inhibition (%) (Neutrophil Elastase; Table 2, 0.625 wt % Lactic Acid): 24.09%

SMILES: O=C(O)CO [Glycolic Acid, reference compound]
- Average Inhibition (%) (Neutrophil Elastase; Table 1, 0.125 wt % Glycolic Acid): 15.8949%
- Average Inhibition (%) (Neutrophil Elastase; Table 1, 0.625 wt % Glycolic Acid): 23.89%

SMILES: CC(=O)N(c1cccc(C(F)(F)F)c1)C(C(=O)NCC(=O)O)C(C)C (stereo not shown) [ATV, acetyl trifluoromethylphenyl valylglycine]
- Average Inhibition (%) (Neutrophil Elastase; Table 1, 0.0125 wt % ATV): 12.49%
- Average Inhibition (%) (Neutrophil Elastase; Table 1, 0.025 wt % ATV): 14.97%
- Average Inhibition (%) (Neutrophil Elastase; Table 1, 0.0625 wt % ATV): 18.36%
- Average Inhibition (%) (Neutrophil Elastase; Table 2, 0.0125 wt % ATV): 4.93%
- Average Inhibition (%) (Neutrophil Elastase; Table 2, 0.025 wt % ATV): 9.311%
- Average Inhibition (%) (Neutrophil Elastase; Table 2, 0.0625 wt % ATV): 11.96%
- amount penetrated through the stratum corneum [1]: about 0.08 wt %
- amount penetrating past the stratum corneum barrier into epidermis, dermis and receptor fluid [1]: about 0.8%
- dermal dose of the 2 wt % preparation [1]: at least 0.08 wt %
